Test: Thickening / thixotropy of aqueous mixtures
Format: physicochemical
Settings: standard test formulation
Method: “thixotropic” or “thixotropically” means, with reference to a thickened composition, when applied to a vertical surface, it will cling until disturbed by wiping or massaging in biomechanical cleansing.
The sodium dodecylbenzene sulfonate base employed in Examples 34-46 was prepared as follows: 90.07% (Wt.) of deionized water was placed in the blender beaker and 1.104% sodium hydroxide pellets added and the mixture stirred until all sodium hydroxide dissolved. 8.826% of dodecylbenzene sulfonic acid (98% purity) was added slowly with good stirring until all the dodecylbenzene sulfonic acid dissolved (reacted with the sodium hydroxide). The pH of the resulting solution was […]. The final solution contained 9.42% sodium dodecylbenzene sulfonate. Approximately 450 gms of the base, containing 408 gms of water and 42.4 gms of the sodium dodecylbenzene sulfonate, were used in all the examples of TABLE VI. 124 gms of aluminum oxide grit (A2-325 and P-6 grades from Altmatis) were employed in the compositions of TABLE VI.
The alkyl alcohol ethoxylates were added slowly with good mixing employing a Silverson L4RT-A laboratory mixer with the pump head mixer. As the mixture thickened, addition of the alkyl alcohol ethoxylates was slowed until the thickened mixture had the consistency of whipped cream. If the desired thickening was achieved, it was so noted as “YES”, if not, it was noted as “NO”.

Compound | formation of stable thickened compositions
CCCCCCCCCCCCc1ccc(S(=O)(=O)[O-])cc1.[Na+] [sodium docecylbenzene sulfonate] | did form stable thickened compositions
CCCCCCCCCCCCS(=O)(=O)[O-].[Na+] [sodium lauryl (C12) sulfonate] | did not result in stable thickened compositions
CCCCCCCCS(=O)(=O)[O-].[Na+] [sodium octane sulfonate] | did not result in stable thickened compositions
sodium alkyl(C11-16) sulfonate | did not result in stable thickened compositions
